Reference: PMC4519959, “Baicalin Protects Mice from Aristolochic Acid I-Induced Kidney Injury by Induction of CYP1A through the Aromatic Hydrocarbon Receptor” (International Journal of Molecular Sciences, 2015)

Key:
[1] = Pharmacokinetics of AAI and AAIa in mouse plasma (HPLC); assay type: in vivo, C57BL/6 mice; conditions: for AUC / Cmax / Tmax / t1/2: AAI in mouse plasma
From the text: AAIa is the major metabolite of AAI oxidative metabolism by CYP1A. We studied the pharmacokinetics of AAI and its metabolites in vivo. […] Simultaneously, the level of AAIa, the major metabolite of AAI, was higher in the plasma of the baicalin-pretreated group than that in the AAI group (Figure 3B).
(§1) Figure 3 Levels of AAI and its major metabolite AAIa in the plasma, liver, and kidney. Blood samples were collected from mice at the indicated time points after AAI injection. Plasma levels of AAI (A) and AAIa (B) were measured by high-performance liquid chromatography (HPLC); Tissue samples from mice were collected at 30 min after AAI injection to determine the levels of AAI (C) and AAIa (D).
(§2) Blood samples (40 μL each) were collected in heparin-coated capillaries and mixed with 50 μL saline. The samples were spun at 3000× g for 10 min at 4 °C. Tissue samples were homogenized in saline and spun at 14,000× g for 10 min, and the supernatants were then mixed with 100 μg/mL (final concentration) indomethacin (internal standard, IS) and 2 volumes of methanol and spun again at 14,000× g for 5 min to remove precipitated proteins. Aliquots of the final supernatants were analyzed and quantified for the levels of AAI and its metabolite AAIa by high-performance liquid chromatography (HPLC), as described below.
The quantification of AAI and its metabolite AAIa was carried out with a Waters 9625 HPLC system (Sunnyvale, CA, USA). For AAI, the linear ranges of the calibration curves were 0–100 μg/mL in the plasma, liver, and kidney, the regression equations were y = 32.186x + 1.1609 (r^2 = 0.9992), y = 38.261x − 1.2753 (r^2 = 0.9688), and y = 80.334x + 1.7436 (r^2 = 0.9987), respectively, where y is the peak area and x is the concentration of the analyte. The identity of AAIa was confirmed with synthesized standards provided by Minghua Xu (Shanghai Institute of Materia Medica, Shanghai, China).

[2] = tested on: AAI-induced renal damage; test: AAI nephrotoxicity in mice (serum BUN, CRE, kidney H&E histopathology); assay type: in vivo, C57BL/6 mice
From the text: Mice were pretreated with baicalin for three days.
Figure 2 Effects of baicalin on aristolochic acid I (AAI) nephrotoxicity. Blood samples were collected to obtain serum for the measurement of blood urea nitrogen (BUN) (A) and creatinine (CRE) (B); (C) Kidneys were collected to perform hematoxylin and eosin (H&E) staining. Arrowheads, tubular dilation; stars, tubular necrosis and granular casts. Scale bar, 100 μm.
Male C57BL/6 mice (6–7 weeks old, 20–22 g) were obtained from Shanghai Laboratory Animal Center. All animal experiments were approved by the Shanghai Animal Care and Use Committee (Certificate No. SCXK [Shanghai] 2002-0010). […] Each group received different treatments as defined in Figure 7. Blood and liver tissues were collected and stored at −80 °C until use. Serum blood urea nitrogen (BUN) and creatinine (CRE) were measured by an automatic HITACHI Clinical Analyzer Model 7080 (Hitachi, Tokyo, Japan).
Kidneys were collected at the indicated time points and fixed in 10% formalin solution before being embedded in paraffin for sectioning into 5-μm-thick sections. Sections were stained with hematoxylin and eosin (H&E) using standard pathology procedures and evaluated by a pathologist as described previously.

[3] = tested on: X2 (−21,148 to −24,409 of CYP1A1) segment of the CYP1A promoter; test: Luciferase reporter assay pGL4.10-X2 in HepG2 cells; assay type: cell-based, human; conditions: baicalin 1, 10 or 50 μM, BNF 50 μM, normalized to renilla luciferase
From the text: (§3) Two pGL4.10 luciferase plasmids containing X1 (+1 to −2867 of CYP1A1) and X2 (−21,148 to −24,409 of CYP1A1; Figure 6A) segments were transfected into HepG2 cells to investigate the effects of baicalin.
(§4) Figure 6 Effects of baicalin on the AhR-mediated activation of different segments of the CYP1A promoter in HepG2 cells. (A) Location of two insert segments, X1 and X2; and (B) Effects of baicalin and BNF on the luciferase activity of pGL4.10-X1; (C) Effects of baicalin and BNF on the luciferase activity of pGL4.10-X2. Luciferase activity was determined by firefly luciferase assay with data normalized to renilla luciferase activity. The results are expressed as the activity in drug treatment groups relative to that of the vehicle control. Each value is expressed as the mean ± SD. * p < 0.05, ** p < 0.01, *** p < 0.001 versus the plasmid only group. […]
(§5) HepG2 cells were seeded at a density of 1.0 × 10^5 cells/mL in 6-well plates to achieve ~50% confluence the next day and were then transfected with pGL4.10-X1/2 plasmids using Lipofectamine 2000 (Invitrogen). […] Thereafter, cells were collected and further assayed for firefly luciferase activity, which was normalized to the activity of renilla luciferase, using the Dual-Luciferase Reporter Assay System (Promega, Madison, WI, USA) and a Biotek Synergy 4 Microplate reader (Biotek, Winooski, VT, USA). […]

[4] = tested on: X1 (+1 to −2867 of CYP1A1) segment of the CYP1A promoter; test: Luciferase reporter assay pGL4.10-X1 in HepG2 cells; assay type: cell-based, human; conditions: baicalin 1, 10 or 50 μM, BNF 50 μM, normalized to renilla luciferase
From the text: as §3, §4, §5

[5] = tested on: CYP1A2; assay type: cell-based, human; conditions: Fa2N-4 cells, DMF 2 μM with baicalin, 24 h
Experimental: (§6) The immortalized hepatocyte cell line Fa2N-4 (Xenotech, Kansas City, KS, USA) was maintained in BEGM Bullet kit medium with 10% heat inactivated fetal bovine serum (FBS) and 1% antibiotic-antimycotic solution (Invitrogen, Carlsbad, CA, USA) at 37 °C in a humidified atmosphere of 95% air and 5% CO2. Fa2N-4 cells were plated in 6-well plates to achieve ~80% confluence next day. Cells were collected at 24 h after treatment with vehicle or baicalin (0–100 μM) in the presence or absence of 3ʹ,4ʹ-DMF (2 μM).

[6] = tested on: CYP1A1; test: CYP1A1 mRNA and protein expression in Fa2N-4 cells (real-time PCR, Western blot); assay type: cell-based, human; conditions: 24 h
Experimental: as §6

[7] = tested on: CYP1A2; conditions: mice
[8] = Levels of AAI and AAIa in mouse liver and kidney (HPLC); assay type: in vivo, C57BL/6 mice; conditions: baicalin pretreatment; 30 min after AAI 10 mg/kg i.p.; versus AAI group
Experimental: as §1
To examine whether the change in pharmacokinetics of AAI upon baicalin pretreatment was due to changes in the tissue distribution of AAI, the levels of AAI and AAIa in the livers and kidneys were measured by HPLC.
as §2
The quantification of AAI and its metabolite AAIa was carried out with a Waters 9625 HPLC system (Sunnyvale, CA, USA). […]

[9] = tested on: CYP1A2; test: Screening of herbal compounds for CYP1A2 induction in Fa2N-4 cells (mRNA, real-time PCR); assay type: cell-based, human; conditions: 10 μM, compared among seven herbal compounds
Experimental: To screen CYP1A2 inducers, Fa2N-4 cells, a non-tumorigenic immortalized human hepatic cell line, were treated with seven different herbal compounds.
Figure 1 Screening of herbal compounds for their activities in inducing CYP1A2 in Fa2N-4 cells. Cells were pre-treated with candidate compounds at 10 μM. CYP1A2 mRNA was quantified by real-time PCR. con: control (negative control); 1: omeprazole (positive control); 2: kaempferide; 3: catalpol; 4: isorhamnetin; 5: ferulic acid; 6: ligustrazine; 7: astragaloside; 8: baicalin. *** p < 0.001 versus the negative control.
as §6

[10] = tested on: CYP1A1; test: Hepatic CYP1A1 mRNA and protein expression in mice; assay type: in vivo, mouse; conditions: baicalin 80 mg/kg daily for 3 days
[11] = AAI 10 mg/kg i.p. after baicalin 80 mg/kg daily for 3 days
[12] = AAI 10 mg/kg i.p. after baicalin 160 mg/kg daily for 3 days
[13] = baicalin pretreatment, then AAI 10 mg/kg i.p., versus AAI group
[14] = baicalin 80 or 160 mg/kg daily for 3 days, then AAI 10 mg/kg i.p. on day 4, versus AAI only

COc1cccc2c1cc([N+](=O)[O-])c1c(C(=O)O)cc3c(c12)OCO3 [AAI, aristolochic acid I]
AUC [1, 11]: 759.39 ± 23.26 ** min·μg/mL | Cmax [1, 11]: 4.43 ± 0.24 µg/mL | Tmax [1, 11]: 10.00 ± 0 min | t1/2 [1, 11]: 77.96 ± 6.84 min | AUC [1, 12]: 710.07 ± 33.95 *** min·μg/mL | Cmax [1, 12]: 3.89 ± 0.43 µg/mL | Tmax [1, 12]: 9 ± 2.24 min | t1/2 [1, 12]: 80.83 ± 3.02 min | AUC ([1]; AAI 10 mg/kg i.p., no baicalin): 844.96 ± 40.12 µg·min/mL | Cmax ([1]; AAI 10 mg/kg i.p., no baicalin): 4.99 ± 0.41 µg/mL | Tmax ([1]; AAI 10 mg/kg i.p., no baicalin): 10.00 ± 0 min | t1/2 ([1]; AAI 10 mg/kg i.p., no baicalin): 78.68 ± 12.88 min | kidney lesions (H&E histopathology) ([2]; AAI 10 mg/kg i.p., seven days after AAI administration): extensive tubular necrosis, and tubular dilation

O=c1cc(-c2ccccc2)oc2ccc3ccccc3c12 [BNF, β-Naphthoflavone, reference compound]
luciferase activity of pGL4.10-X2 relative to vehicle control [3]: increased the luciferase activity | luciferase activity of pGL4.10-X1 relative to vehicle control [4]: increased the luciferase activity

COc1ccc(-c2cc(=O)c3ccccc3o2)cc1OC [DMF, 3ʹ,4ʹ-dimethoxyflavone, reference compound]
effect on baicalin-induced CYP1A2 expression [5]: abolished | effect on baicalin-induced CYP1A1 expression ([6]; DMF 2 μM with baicalin): abolished

Oc1ccc(/C=C/c2cc(O)cc(O)c2)cc1 [RES, resveratrol, reference compound]
effect on induction of hepatic CYP1A2 by baicalin ([7]; RES 50 mg/kg with baicalin 80 mg/kg daily for 3 days): pronouncedly attenuated

O=C(O)[C@H]1O[C@@H](Oc2cc3oc(-c4ccccc4)cc(=O)c3c(O)c2O)[C@H](O)[C@@H](O)[C@@H]1O [baicalin]
CYP1A2 expression in the liver at mRNA and protein level ([7]; baicalin 80 mg/kg daily for 3 days): pronouncedly increased | effect of pretreatment on the level of AAI in livers and kidneys [8]: reduced levels | effect of pretreatment on the level of AAIa in livers and kidneys [8]: reduced levels | effect of pretreatment on the level of AAI in mice (plasma, AUC) [1, 13]: markedly decreased | effect of pretreatment on the level of AAIa in the plasma [1, 13]: higher | CYP1A1 expression at mRNA and protein level ([6]; 100 μM): increased | CYP1A1 expression ([6]; 10 or 50 μM): relatively mild effect | luciferase activity of pGL4.10-X2 relative to vehicle control [3]: increased the luciferase activity | CYP1A2 gene expression at the mRNA level (induction) [9]: most potent compound in inducing CYP1A2 gene expression | luciferase activity of pGL4.10-X1 relative to vehicle control [4]: increased the luciferase activity | blood urea nitrogen (BUN) induced by AAI [2, 14]: significantly reduced | creatinine (CRE) induced by AAI [2, 14]: significantly reduced | kidney lesions (H&E histopathology) ([2]; baicalin pretreatment for 3 days, then AAI 10 mg/kg i.p., versus AAI group): fewer lesions | CYP1A1 expression in the liver at mRNA and protein level [10]: pronouncedly increased
